Literature values as cited in US10940187B2, “Method of treatment of schizophreniform disorder” (Curemark, LLC, priority 2011, dated 2021).
Where two headings read alike, the source gives them in different places.

How the values were obtained:
[1] = test system: ckr mice; details: for spontaneous hyperactivity of ckr mice: dose dependent effects
[2] = test system: control mice; details: monitored during the dark cycle

O=C1Cc2cc(CCN3CCN(c4nsc5ccccc45)CC3)c(Cl)cc2N1 [ziprasidone]
spontaneous hyperactivity of ckr mice [1]: dose-dependently suppressed

OCCOCCN1CCN(C2=Nc3ccccc3Sc3ccccc32)CC1 [quetiapine]
spontaneous hyperactivity of ckr mice [1]: dose-dependently suppressed

O=C(CCCN1CCC(O)(c2ccc(Cl)cc2)CC1)c1ccc(F)cc1 [haloperidol]
spontaneous hyperactivity of ckr mice [1]: dose-dependently suppressed
locomotor activity of control mice [2]: did not produce a significant suppression

Cc1nc2n(c(=O)c1CCN1CCC(c3noc4cc(F)ccc34)CC1)CCCC2 [risperidone]
spontaneous hyperactivity of ckr mice [1]: dose-dependently suppressed

O=C1CCc2ccc(OCCCCN3CCN(c4cccc(Cl)c4Cl)CC3)cc2N1 [aripiprazole]
locomotor activity, post-hoc Dunnett's test vs vehicle control ([1]; 15 mg/kg): did not significantly suppress
motor activity ([1]; 15 mg/kg): increase in motor activity
locomotor activity, post-hoc Dunnett's test vs vehicle control ([1]; 30 mg/kg): significantly suppressed
motor activity ([1]; 30 mg/kg): suppression of motor activity
overall suppression of motor function (observational) ([1]; 30 mg/kg): severe sedation
locomotor activity of ckr mice ([1]; across doses, F6,54_4.626, P_0.001): dose-dependently reduced
ED50 for initial suppression of locomotor activity ([1]; curve fitted to subset of data, doses 1.67 to 10 mg/kg, fit failed to correlate with observed values): 2.695 mg/kg
spontaneous hyperactivity of ckr mice [1]: dose-dependently suppressed
locomotor activity, post-hoc Dunnett's test vs vehicle control ([1]; doses of 3-10 mg/kg): significantly reduced
motor activity ([1]; lower doses 1.67-10 mg/kg): dose-dependent reduction
shape of dose-response on hyperactivity ([1]; suppression at low doses, little effect at intermediate doses, suppression at high doses): tri-phasic dose-response
